These results are taken from ChEMBL document CHEMBL4831536, “Neuroregenerative Potential of Prenyl- and Pyranochalcones: A Structure-Activity Study” (J Nat Prod, 2021).

Data set [1] deals with MEF. The data set is described as follows: Neuro-regenerative activity in NMRI mouse MEF cells transfected with human DCX promoter-driven firefly luciferase reporter assessed as induction of neuronal differentiation at 10 uM incubated for 3 days by luciferase reporter gene based luminescence analysis. Format: functional, cell-based. As to conditions: time 3.0 day.
For data set [2], the system named is MEF. The data set is described as follows: Neuro-regenerative activity in NMRI mouse MEF cells transfected with human DCX promoter-driven firefly luciferase reporter assessed as induction of neuronal differentiation at 10 uM incubated for 3 days by luciferase reporter gene based luminescence analysis relative to control. Format: functional. As to conditions: time 3 day.

In data set [3] the test system is MEF. The experiment in a line: Cytotoxicity against NMRI mouse MEF cells assessed as effect on cell proliferation by measuring effect on renilla activity at 10 uM incubated for 3 days by luminescence based analysis. The settings on record: 72 h, time 3 day.

Activity calls are given as the source filed them. No cut-off for these calls is given here.

On to `CC1(C)C=Cc2c(cc3c(c2O)C(=O)CC(c2ccc(O)cc2)O3)O1` (stereo not drawn), for which the result in the data set on MEF [1] was Active.

As for `COc1cc2c(c(O)c1C(=O)/C=C/c1ccc(O)cc1)C=CC(C)(C)O2` [XANTHOHUMOL C], the Ratio in the data set on MEF [2] is listed as 1.56. The Activity entry in the data set with MEF [3] is recorded as “Non-Toxic”.

For the molecule `COc1cc2c(c3c1C(=O)CC(c1ccc(O)cc1)O3)C=CC(C)(C)O2` (stereo not drawn), the outcome with MEF [1] was Active.

For `COc1cc2c(c(O)c1C(=O)/C=C/c1ccc(O)cc1)CCC(C)(C)O2`, the outcome with MEF [1] was Active.

For `COc1cc2c(c(O)c1C(=O)/C=C/c1ccc(O)c(O)c1)C=CC(C)(C)O2`, in the data set on MEF [1], the result was Active. Also, the Activity result with MEF [3] is listed as “Non-Toxic”.

Regarding `COc1ccc(/C=C/C(=O)c2c(OC)cc3c(c2O)C=CC(C)(C)O3)cc1`, the outcome in the data set with MEF [1] was Active.

For `COc1cc(O)c(CC=C(C)C)c(O)c1C(=O)/C=C/c1ccc(O)cc1` [XANTHOHUMOL], the Ratio with MEF [2] was found to be 5.55. Further, the Activity result in the data set with MEF [3] was “Toxic”.

Consider `CC1(C)C=Cc2c(cc(O)c3c2OC(c2ccc(O)cc2)CC3=O)O1` (stereo not drawn), for which the outcome in the data set on MEF [1] was Active.

With `COc1cc2c(c(O)c1C(=O)/C=C/c1ccc3c(c1)OCO3)C=CC(C)(C)O2`, in the data set on MEF [1], the outcome was Active.

Take `COc1cc2c(c(O)c1C(=O)/C=C/c1ccc(O)cc1)C=CC(C)(CCC=C(C)C)O2` (stereo not drawn): the outcome with MEF [1] was inactive.
